Results reported in ChEMBL document CHEMBL4673311, “Development of pyrimidone D1 dopamine receptor positive allosteric modulators” (Bioorg Med Chem Lett, 2021).

What was measured:
[1] = target: D(1B) dopamine receptor (Homo sapiens) (UniProt P21918); assay: Positive allosteric modulator activity at human dopamine D5 receptor expressed in CHO-K1 cells assessed as fold change in dopamine Emax for beta-arrestin2 recruitment at 50 uM incubated for 90 mins by PathHunter assay relative to control; assay type: cell-based; conditions: filed as positive allosteric modulator
[2] = target: D(1B) dopamine receptor (Homo sapiens) (UniProt P21918); assay: Positive allosteric modulator activity at human dopamine D5 receptor expressed in CHO-K1 cells assessed as fold change in dopamine EC50 for beta-arrestin2 recruitment at 50 uM incubated for 90 mins by PathHunter assay relative to control; assay type: cell-based; conditions: filed as positive allosteric modulator

Sequence of D(1B) dopamine receptor (Homo sapiens) (P21918 whole entry): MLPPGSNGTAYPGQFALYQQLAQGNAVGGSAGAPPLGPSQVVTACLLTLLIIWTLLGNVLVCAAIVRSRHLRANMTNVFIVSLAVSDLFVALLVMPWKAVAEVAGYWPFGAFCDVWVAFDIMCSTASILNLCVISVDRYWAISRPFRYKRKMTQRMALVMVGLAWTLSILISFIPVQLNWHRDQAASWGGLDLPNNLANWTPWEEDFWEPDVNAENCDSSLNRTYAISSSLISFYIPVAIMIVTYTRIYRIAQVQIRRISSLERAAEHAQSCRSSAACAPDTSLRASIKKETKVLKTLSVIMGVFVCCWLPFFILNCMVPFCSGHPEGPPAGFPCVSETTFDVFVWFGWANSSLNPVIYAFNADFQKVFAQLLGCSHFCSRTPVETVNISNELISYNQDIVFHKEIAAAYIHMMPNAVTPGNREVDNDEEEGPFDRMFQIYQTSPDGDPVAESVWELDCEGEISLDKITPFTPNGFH

fold change (FC) [1]: 1.5
fold change (FC) [2]: 2.84
SMILES: Cn1c2ccccc2c(=O)c2c(=O)n(-c3ccccc3)c(C3CCCCC3)nc21
